Earlier results, collected in patent US20030181501A1 (priority 2001, published 2003).

Conditions: Dionne (1999)

Cc1onc(-c2ccccc2)c1-c1ccc(S(N)(=O)=O)cc1 [Valdecoxib, 4-(5-methyl-3-phenyl-4-isoxazolyl)benzenesulfonamide]
Solubility in water: extremely low solubility in water
